Experimental findings from PMC6010119 (Journal of Enzyme Inhibition and Medicinal Chemistry, 2017) are described below.

For assay [1], the target named is EGFR (Homo sapiens, UniProt P00533). The assay is classed as biochemical. The settings on record: test concentration not given; conclusion says EGFR in A549 cancer cells.
Assay [2] relates to A549 lung cancer cells. Put plainly: cells. The settings on record: Homo sapiens, A549, read-out: IC50 on A549.

EGFR, sequence (P00533 25-1210): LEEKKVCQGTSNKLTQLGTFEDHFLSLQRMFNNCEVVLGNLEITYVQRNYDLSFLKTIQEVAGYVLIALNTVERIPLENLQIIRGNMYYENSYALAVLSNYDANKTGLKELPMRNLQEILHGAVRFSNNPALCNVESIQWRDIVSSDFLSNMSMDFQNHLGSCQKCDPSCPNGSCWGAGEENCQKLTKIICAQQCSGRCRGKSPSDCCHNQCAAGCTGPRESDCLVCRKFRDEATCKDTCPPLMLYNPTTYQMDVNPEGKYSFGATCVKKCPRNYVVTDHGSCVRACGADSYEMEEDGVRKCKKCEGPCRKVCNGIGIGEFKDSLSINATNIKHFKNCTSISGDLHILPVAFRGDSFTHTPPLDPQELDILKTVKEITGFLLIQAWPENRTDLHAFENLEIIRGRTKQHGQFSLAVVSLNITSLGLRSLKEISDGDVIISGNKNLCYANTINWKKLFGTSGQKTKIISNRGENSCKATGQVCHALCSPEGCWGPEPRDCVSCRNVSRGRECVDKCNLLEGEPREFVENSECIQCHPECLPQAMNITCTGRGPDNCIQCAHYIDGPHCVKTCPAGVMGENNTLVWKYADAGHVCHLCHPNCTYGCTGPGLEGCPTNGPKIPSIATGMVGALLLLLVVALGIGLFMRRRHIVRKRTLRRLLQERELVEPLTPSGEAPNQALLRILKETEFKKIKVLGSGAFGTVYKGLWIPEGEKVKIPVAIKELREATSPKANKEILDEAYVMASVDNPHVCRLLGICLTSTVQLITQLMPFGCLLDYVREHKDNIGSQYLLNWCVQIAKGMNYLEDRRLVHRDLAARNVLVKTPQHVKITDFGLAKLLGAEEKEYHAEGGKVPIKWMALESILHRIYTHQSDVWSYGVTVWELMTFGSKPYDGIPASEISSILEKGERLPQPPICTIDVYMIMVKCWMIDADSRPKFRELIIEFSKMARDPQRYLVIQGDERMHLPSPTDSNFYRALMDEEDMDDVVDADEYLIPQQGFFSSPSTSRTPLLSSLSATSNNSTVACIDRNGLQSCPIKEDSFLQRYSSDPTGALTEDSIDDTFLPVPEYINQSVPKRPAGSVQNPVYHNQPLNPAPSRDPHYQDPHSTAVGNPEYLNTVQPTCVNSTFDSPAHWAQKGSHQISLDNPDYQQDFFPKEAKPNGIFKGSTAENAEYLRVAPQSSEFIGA

As a reminder, the IC50 is the concentration that gives 50% inhibition. Turning to `NS(=O)(=O)c1ccc(-n2c(SCC(=O)Nc3ccccc3)nc3cc4ccccc4cc3c2=O)cc1` [Compound 5, 2-(4-Oxo-3-(4-sulfamoylphenyl)-3,4-dihydrobenzo[g]quinazolin-2-ylthio)-N-phenylacetamide], the “% inhibition of EGFR” value in assay [1] came to 55.58%. Moreover, in assay [2], the IC50 amounted to 1017 ± 10 nM. As to `Cc1ccccc1NC(=O)CSc1nc2cc3ccccc3cc2c(=O)n1-c1ccc(S(N)(=O)=O)cc1` [Compound 6, 2-(4-Oxo-3-(4-sulfamoylphenyl)-3,4-dihydrobenzo[g]quinazolin-2-ylthio)-N-o-tolylacetamide], the “% inhibition of EGFR” value in assay [1] amounted to 84.31%. In assay [2], the IC50 is 105 ± 12 nM. For `Cc1cccc(NC(=O)CSc2nc3cc4ccccc4cc3c(=O)n2-c2ccc(S(N)(=O)=O)cc2)c1` [Compound 7, 2-(4-Oxo-3-(4-sulfamoylphenyl)-3,4-dihydrobenzo[g]quinazolin-2-ylthio)-N-m-tolylacetamide] the same measures were 66.85% and 1271 ± 2 nM. The like results for `Cc1ccc(NC(=O)CSc2nc3cc4ccccc4cc3c(=O)n2-c2ccc(S(N)(=O)=O)cc2)cc1` [Compound 8, 2-(4-Oxo-3-(4-sulfamoylphenyl)-3,4-dihydrobenzo[g]quinazolin-2-ylthio)-N-p-tolylacetamide] were, in that order, 90.21% and 220 ± 120 nM. For `COc1cc(NC(=O)CSc2nc3cc4ccccc4cc3c(=O)n2-c2ccc(S(N)(=O)=O)cc2)cc(OC)c1OC` [Compound 15, 2-(4-Oxo-3-(4-sulfamoylphenyl)-3,4-dihydrobenzo[g]quinazolin-2-ylthio)-N-(3,4,5-trimethoxyphenyl)acetamide] the same measures were 58.04% and 545 ± 3 nM. As to `C#Cc1cccc(Nc2ncnc3cc(OCCOC)c(OCCOC)cc23)c1` [Erlotinib, reference compound], the IC50 in assay [2] was 727 ± 8 nM.
